Source: patent US20190248834A1, “ENDOMORPHIN-2, TETRAPEPTIDE DERIVATIVES THEREOF, AND USES THEREOF” (priority 2016, published 2019)
Non-standard residues stand in square brackets, D forms with d. pGlu = O=C1CC[C@@H](C(=O)O)N1

Legend:
Type in all cases: in vivo, human
[1] = system: chronic arthritic pain of left ankle; assay: Example 9: analgesic effect on ankle pain, topical
Source text: A subject had chronic arthritic pain of their left ankle. They were previously treated with prescription corticosteroid injections.
The subject topically applied an anhydrous composition containing 0.5% (w/v) N-Ac-Tyr-Pro-Phe-Phe-NH2 (SEQ ID NO: 23) in EP73, formulated as described in Example 2, at bedtime. The next morning, they observed approximately 90% improvement of pain. The subject topically re-applied the same composition at bedtime. The following entire day, they had about 95% pain improvement.

severe migraine = assay: Example 13: analgesic effect on chronic migraine headache, topical; conditions: 1% (w/v) in WEP442, topical
Source text: One late afternoon, the subject developed severe pain in those areas, accompanied by feelings of vertigo and nausea. The subject topically applied a composition containing 1% (w/v) N-Ac-Tyr-Pro-Phe-Phe-NH2, (SEQ ID NO: 23) in WEP442 to the entire occipital scalp, including the peri-auricular areas.

[2] = system: chronic subpatellar and peripheral patellar pain; assay: Example 8: analgesic effect on knee pain, topical
Source text: A subject had chronic subpatellar and peripheral patellar pain in their knees.
The subject topically applied an anhydrous composition containing 0.7% (w/v) N-Ac-Tyr-Pro-Phe-Phe-NH2 (SEQ ID NO: 23) in EP73, formulated as described in Example 2, at bedtime. The next morning, they observed about 50% relief of pain. The subject topically re-applied the same composition under a plastic film wrap for one hour, after which they observed about 95% relief of pain.

knee pain = assay: Example 42: analgesic effect on knee pain following twisting of leg, topical; conditions: 1% (w/v) in WEP442, topical
Source text: A subject, twisted their left leg during work on building construction, causing substantial pain in the left knee. The pain persisted into the late evening, preventing them from falling asleep.

moderate lower back pain = assay: Example 23: analgesic effect on lower back pain, topical; conditions: 1% (w/v) in WEP442, topical
Source text: A subject, working as a house cleaner, complained of moderate lower back pain at the end of a work day.

[3] = system: jaw pain after tooth extraction; assay: Example 28: analgesic effect on dental extraction pain, topical
Procedure: A subject had substantial pain in the left mandibular jaw that started about 3 hours after extraction of a left mandibular molar tooth. […] Only negligible discomfort was perceptible thereafter.

[4] = system: finger pain following trauma; assay: Example 31: analgesic effect on painful inflammation following trauma, topical; conditions: 1% (w/v) in WEP442, topical
Procedure: A subject, experienced sharp pain in their right index finger while trying to loosen a screw-on lid of a fruit jar with their right hand. After about 10 minutes, the pain became throbbing in nature and very intense. The proximal interphalangeal became swollen and discolored (black and blue) from subcutaneous hemorrhage. […] Discoloration of the joint faded over the next several days.

[5] = system: chronic right shoulder pain; assay: Example 7: analgesic effect on shoulder pain, topical
Source text: A subject had chronic right shoulder pain. The subject was unable to lift their arm above chest level. The subject topically applied an anhydrous solution composition containing 0.5% (w/v) N-Ac-Tyr-Pro-Phe-Phe-NH2(SEQ ID NO: 23) in EP73, formulated as described in the Example 2, on their right shoulder at night. The next morning, 70% relief of pain was observed. The subject re-applied the composition at bedtime. The following morning, 85-90% relief was observed and they were able to lift their arm above their head with only minor discomfort.

severe frontal headaches = assay: Example 47: analgesic effect on severe headaches, topical
Source text: A subject had severe frontal headaches occurring every 5-10 days.

headache [6] = assay: Example 52: analgesic effect on headache; conditions: 1% (w/v) in WEP442, topical
Source text: At 5:30 p.m., the headache pain was becoming more intense, at which time they topically applied a composition containing 1% (w/v) of N-Pg-Tyr-Pro-Phe-Phe-NH2 (SEQ ID NO: 44) in WEP442 to the entire forehead and temporal areas. […] There was no recurrence of symptoms over the next 3 days of follow-up time.

headache [7] = assay: Example 44: analgesic effect on headache, topical
Source text: A subject, experienced a headache that began on the right temporofrontal area. Within about a half hour the headache pain area expanded to include the left temporofrontal area and both orbital areas. The intensity of pain increased simultaneously to a degree that caused them to remove themself from their sedentary occupation. Available to them was a composition containing 1% (w/v) of N-Pg-Tyr-Pro-Phe-Phe-NH2 (SEQ ID NO: 44) in WEP442, which they topically applied to all the above areas, keeping their eyes closed until the lids dried. Pain relief was detected after about 5 minutes, at which time a second application of the solution was made. Within another 5 minutes, pain relief was substantial, allowing them to return to their occupation.

[8] = system: chronic foot pain and neck pain; assay: Example 67: analgesic effect on pain in feet and neck with plaque psoriasis, topical; conditions: 0.5% (w/v) in WEP442, topical
Source text: A person with plaque psoriasis since their early teenage years had chronic foot pain for the past 10-15 years and neck pain for the past several years. The latter had been associated with, and aggravated by occupationally keeping their neck to one side as they held a phone against their head. […] Such topical applications provided relief for over one month when used.

[9] = system: painful arthritis of hands; assay: Example 76: analgesic effect on arthritis pain of the hands, topical; conditions: 0.5% (w/v) in WEP442, topical; before about 20 minutes
Procedure: A subject, and a veteran guitar player, was able to play their instrument in previous years for about an hour in group session performances. […] The subject reported that topical application to their hands of a composition containing 0.5% (w/v) of N-Pg-Tyr-Pro-Phe-Phe-NH2 (SEQ ID NO: 44) in WEP442 enabled them to play their guitar for 1 hour pain free. They also noted that the quality of their performance had improved.

Q: With `CC(=O)N[C@@H](Cc1ccc(O)cc1)C(=O)N1CCC[C@H]1C(=O)N[C@@H](Cc1ccccc1)C(=O)N[C@@H](Cc1ccccc1)C(N)=O` [N-Ac-Tyr-Pro-Phe-Phe-NH2] as the compound, how does the pain improvement ([1]; 0.5% (w/v) in EP73, re-applied at bedtime, following entire day) read?
A: The pain improvement was “about 95%”.

Q: And the improvement of pain ([1]; 0.5% (w/v) in EP73, topical at bedtime, next morning)?
A: The improvement of pain was “approximately 90%”.

Q: And the pain relief (severe migraine)?
A: The pain relief was “all pain and other symptoms disappeared”.

Q: And the recurrence (severe migraine)?
A: Its recurrence is “no recurrence of any migraine headache during the next week”.

Q: What about the “time to pain relief” value (severe migraine) of the same compound?
A: Its value is ≤ 5 min.

Q: And the relief of pain ([2]; 0.7% (w/v) in EP73, re-applied under plastic film wrap for one hour)?
A: The relief of pain was “about 95%”.

Q: And the relief of pain ([2]; 0.7% (w/v) in EP73, topical at bedtime, next morning)?
A: The relief of pain was “about 50%”.

Q: What about the pain relief (knee pain) of the same compound?
A: Its pain relief is “complete relief of pain”.

Q: And the recurrence (knee pain)?
A: Its recurrence is “pain free the next morning and thereafter”.

Q: What about the “time to pain relief” value (knee pain) of the same compound?
A: Its value is “less than 1 minute”.

Q: What about the pain relief (moderate lower back pain) of the same compound?
A: The pain relief was “almost complete relief of pain”.

Q: And the “time to pain relief” value (moderate lower back pain)?
A: Its value is 1 to 2 min.

Q: And the “time to pain relief” value ([3]; 1% (w/v) in WEP442, topical)?
A: Its value is “less than 1 minute”.

Q: What about the pain relief ([3]; 1% (w/v) in WEP442, topical to facial-lower jaw skin) of the same compound?
A: The pain relief was “complete relief of pain”.

Q: And the pain relief [4]?
A: Its pain relief is “instantaneous total relief of pain”.

Q: And the recurrence [4]?
A: The recurrence was “No pain returned”.

Q: And the relief of pain ([5]; 0.5% (w/v) in EP73, re-applied at bedtime, following morning)?
A: The relief of pain was 85-90%.

Q: And the relief of pain ([5]; 0.5% (w/v) in EP73, topical at night, next morning)?
A: The relief of pain was 70%.

Q: What about the “time to pain relief” value (severe frontal headaches; 1% (w/v) in WEP442, topical) of the same compound?
A: Its value is 3 to 4 min.

Q: And the pain relief (severe frontal headaches; 1% (w/v) in WEP442, topical at onset)?
A: Its pain relief is “completely interrupted all pain”.

Q: How did the pain relief (headache [6]) turn out when “N-Pg-Tyr-Pro-Phe-Phe-NH2 ([pGlu]YPFF-NH2; SMILES NC(=O)[C@H](Cc1ccccc1)NC(=O)[C@H](Cc1ccccc1)NC(=O)[C@@H]1CCCN1C(=O)[C@H](Cc1ccc(O)cc1)NC(=O)[C@@H]1CCC(=O)N1)” was run?
A: Its pain relief is “all pain, and heavy feelings were completely gone”.

Q: What about the “time to pain relief” value (headache [6]) of the same compound?
A: Its value is ≤ 30 s.

Q: And the “time without recurrence of symptoms (follow-up)” value (headache [6])?
A: Its value is ≥ 3 days.

Q: And the pain relief (headache [7]; 1% (w/v) in WEP442, after second application)?
A: The pain relief was “Total relief of pain”.

Q: And the “time to detected pain relief” value (headache [7]; 1% (w/v) in WEP442, first topical application)?
A: The value was “about 5 minutes”.

Q: And the recurrence (headache [7]; 1% (w/v) in WEP442, topical)?
A: Its recurrence is “no recurrence of pain”.

Q: And the “duration of pain relief” value [8]?
A: Its value is 8 to 10 h.

Q: What about the pain relief [8] of the same compound?
A: The pain relief was “almost complete relief of pain”.

Q: And the “pain free guitar playing time” value [9]?
A: The value was 1 h.
